The values below come from paper PMC7170309, “Imidazopyridine-fused [1,3]diazepinones: modulations of positions 2 to 4 and their impacts on the anti-melanoma activity” (Journal of Enzyme Inhibition and Medicinal Chemistry, 2020).

The term IC50 denotes the point on the concentration scale where inhibition reaches its midpoint. The melting point is the temperature of the solid-liquid transition.

Data set [1] relates to MDA-MB-435 melanoma cells. As to the kind of experiment: Neutral red uptake (NRU) viability assay, MDA-MB-435. Format: cell-based, human. The settings on record: Homo sapiens, MDA-MB-435; NRU assay, 72 h, mean ± SD of three experiments. As to the method: (§1) Melanoma human cancer cell line (A375 and MDA-MB-435) were obtained from ATCC. The NIH-3T3 cell line was generously gifted by the ANSM (French National Agency for Medicines and Health Products Safety, Vendargues, France). Cells were cultured in Dulbecco’s Modified Eagle Medium (DMEM, Sigma Aldrich) supplemented with 10% heat-inactivated foetal calf serum (FCS, Gibco), 2 mM glutamax (Gibco), 100 IU/mL penicillin G sodium (Sigma Aldrich), 100 lU/mL streptomycin sulphate (Sigma Aldrich). The cells were allowed to grow at 37 °C in a fully humidified atmosphere containing 5% CO2.
(§2) A viability assay was used to evaluate the cytotoxic activity on A375 and MDA-MB-435 melanoma cells as previously described. According to OCDE/ICCVAM guidance n°129, NRU assay was also used to evaluate the toxicity on the non-cancerous NIH-3T3 cells. Cells were seeded at a final concentration of 2000 cells/well (A375), 3000 cells/well (NIH-3T3) or 7500 cells/well (MDA-MB-435) in 96-well microtiter plates for 24 h. Then, cells were exposed to two negative controls (1% DMSO in culture medium (vehicle) and culture medium alone), or to different compounds freshly dissolved in DMSO, in a range of concentration from 0.01 to 40 µM (six wells per concentration). After 72 h of incubation, cells were stained with new medium containing 50 µg/mL of neutral red (3-amino-7-dimethylamino-2-methylphenazine hydrochloride, Sigma Aldrich) at 37 °C for 2 h. The neutral red medium solution was then removed and the wells were washed with PBS. Finally, 100 µL of solution containing ethanol, acetic acid and water (50/1/49 v/v/v respectively) were added into the wells and the absorbance was measured at 540 nm using the microplate reader 352 Multiscan MS (Labsystems). Cell survival rates were normalised to the absorbance values of untreated control cells. IC50 was obtained using a logistic regression model on Graphpad Prism 5.0 software. Results are given as the mean ± standard deviation (SD) of three independent experiments. Statistical analysis was performed using the Student’s t-test.

In another data set the test system is A375 melanoma cells. Briefly: Neutral red uptake (NRU) viability assay, A375. The settings on record: Homo sapiens, A-375, 72 h, mean ± SD of three experiments. Type of data set: cell-based, human. As to the method: as §1, §2
Data set [2] can be described thus: Hydrolysis of ester 19 into acid 21 in the presence of melanoma cells and culture medium (HPLC-MS). Format: in vitro ADME. The settings on record: after 72 h in the presence of melanoma cells and culture medium. The source says:
Then, we turned our attention to the SAR study of the position 4 of the diazepine ring, keeping constant the 4-bromophenyl group at R^2 (i.e. compounds 13–17 and 19–22). […] Introduction of a ramified isobutyl chain (compound 15) led also to a loss of the activity (entry 13, Table 1). […] In the same way, a less flexible chain bearing an alkyne group (compound 14) was not tolerated, as well as a long chain (compound 22) (Table 1, entries 12 and 20 respectively).

The subject of data set [3] is NIH-3T3 non-cancerous cells. Briefly: Neutral red uptake (NRU) toxicity assay, NIH-3T3. Type of data set: cell-based. The settings on record: Mus musculus, NIH3T3, 72 h, non-cancerous mouse fibroblasts. How it is done:
as §1, §2
Then, all active compounds on the two melanoma cell lines (IC50 < 40 µM) were assessed on the NIH-3T3 mouse fibroblast cell line, in order to check the toxicity of our compounds on non-cancerous cells. […] As a possible modification of the mechanism of action was hypothesised for these two derivatives (see above), this phenomenon could probably be also correlated with the cytotoxicity observed on the NIH-3T3 cell line.

`O=C(C[C@@H]1NC(c2ccc(Br)cc2)=Nc2nc3ccccn3c2C1=O)OCc1ccccc1` [Compound 19, (4S)-benzyl [2-(4-bromophenyl)-5-oxo-4,5-dihydro-3H-pyrido[1’,2’:1,2]imidazo[4,5-d][1,3]diazepin-4-yl]acetate] registered a melting point of 72.5 to 73.5 °C. The IC50 in data set [1] amounted to 19.4 ± 0.64 µM. Moreover, in the data set with A375 melanoma cells, the IC50 came to 9.78 ± 0.83 µM. The “hydrolysis rate (conversion into acid 21)” value in data set [2] is 65.5%. The IC50 in data set [3] was more than 40 µM.
